In patent publication US12600740B2, “Fluorinated N-acetyl glucosamine analogs and xylose derivatives” (UTI Limited Partnership, priority 2018, dated 2026):
“Also recorded” adds a separate entry of the source. Like-named read-outs stand apart in the source and are kept apart here.

Columns and labels:
[1] = test system: mouse astrocytes; experiment: Propidium iodide/calcein AM toxicity on astrocytes; format: cell-based; details: 100 μM, 48 hours
Procedure: Toxicity on astrocytes was assayed with propidium iodide/calcein AM […]. Live cells convert calcein AM into a green fluorescent product, whereas dying/dead cells are stained with propidium iodide.
96-well plates were imaged with ImageXpress® Micro Cellular Imaging and Analysis System (Molecular Devices, Sunnyvale, CA). Twelve images per well were collected at ×10 magnification. Images were processed with MetaXpress analysis software. OPC outgrowth was calculated by the MetaExpress® “neurite outgrowth” software module which uses fluorescence and user-modified parameters to document the overall extent of processes emanating from the cell soma, regardless of size of the protrusions or the number of branches. This was previously detailed elsewhere [Cua, R. C.; Lau, L. W.; Keough, M. B.; Midha, R.; Apte, S. S.; and Yong, V. W. Overcoming neurite-inhibitory chondroitin sulfate proteoglycans in the astrocyte matrix. Glia 2013, 61 (6), 972-84]. Live-dead cell assay was calculated with MetaXpress analysis software with the “multiwavelength cell scoring”, which uses fluorescent intensity to measure co-localization of calcein AM, propidium iodide, and […]. Data from the 12 images were averaged to a single data point per well, wherein the OPC outgrowth data calculated from the MetaExpress® “neurite outgrowth” readout was divided by data from the same 12 fields of cell number that was acquired through the multiwavelength cell scoring. This provided mean outgrowth per cell per well, with four well replicates per treatment. Experiments were repeated at least twice.
A mixture was created containing propidium iodide (10 μg/ml) to stain dead cells, 10 μM Calcein AM (ThermoFisher, #C3100MP) to identify live cells, and 2 drops per ml of media of NucBlue™ Live ReadyProbes™ Reagent (ThermoFisher, #R37605) to identify nuclei. The mixture was added to plate media and incubated for 20-30 minutes at 37° C. and 5% CO2 before imaging. Excitation/emission of calcein-AM (λex 490 nm, λem 515 nm), propidium iodide (λex 535 nm, λem 617 nm), and nuclear blue (λex 350 nm, λem 461 nm) was performed using ImageXpress® Micro Cellular Imaging and Analysis System (Molecular Devices, Sunnyvale, CA) and analyzed by MetaExpress multiwavelength cell scoring program.

[2] = test system: CSPG production by astrocytes; experiment: Western blot of astrocyte conditioned medium, MAB2030 (chondroitin sulfate GAG stubs); format: cell-based, mouse; details: for Reduce CSPG production: astrocytes, significance class
How it was run: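 Astrocytes (1×10^6 cells/well) were treated with 50 μM compound in AIM-V for 48 h, and pooled conditioned medium was concentrated for Western blot. Samples for MAB2030 were digested overnight at 37° C with 0.2 U/ml chondroitinase ABC; 2H6 blots were undigested. ECL band density was normalized to untreated astrocytes on the same gel.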

[3] = astrocyte conditioned media, 50 μM, 48 hours

Structure (SMILES): CCCC(=O)OC1OC(COC(C)=O)[C@@H](F)[C@H](OC(C)=O)C1NC(C)=O (mixture of isomers) [Compound 8, 2-Acetamido-3,6-di-O-acetyl-1-O-butanoyl-2,4-dideoxy-4-fluoro-α/β-D-glucopyranose]
- toxicity on astrocytes (propidium iodide/calcein AM) [1]: did not produce toxicity

Structure (SMILES): CC(=O)NC1C(O)OC(COC(C)=O)[C@@H](F)[C@@H]1OC(C)=O (mixture of isomers) [Compound 10]
- effect on CSPG production by astrocytes [2]: most effectively reduced CSPG production
- toxicity on astrocytes (propidium iodide/calcein AM) [1]: did not produce toxicity

Structure (SMILES): CC(=O)NC1C(OC(C)=O)OC(COC(C)=O)[C@H](F)[C@@H]1OC(C)=O (mixture of isomers) [Compound 13, 2-Acetamido-1,3,6-tri-O-acetyl-2,4-dideoxy-4-fluoro-α/β-D-galactopyranose]
- effect on CSPG production by astrocytes [2, 3]: significantly reduced chondroitin sulfate GAGs; also recorded: most effectively reduced CSPG production
- toxicity on astrocytes (propidium iodide/calcein AM) [1]: did not produce toxicity

Structure (SMILES): CC(=O)NC1C(OC(C)=O)OC(COC(C)=O)C(F)(F)[C@@H]1OC(C)=O (mixture of isomers) [Compound 16, 2-Acetamido-1,3,6-tri-O-acetyl-2,4-dideoxy-4,4-difluoro-α/β-D-xylo-hexopyranose]
- effect on CSPG production by astrocytes [2, 3]: reduced CSPG production in astrocytes more effectively than Ac-4-F-GlcNAc 3; also recorded: most effectively reduced CSPG production
- toxicity on astrocytes (propidium iodide/calcein AM) [1]: did not produce toxicity

Structure (SMILES): CC(=O)N[C@H]1[C@H](OC(C)=O)O[C@H](COC(C)=O)[C@@H](OC(C)=O)[C@@H]1OC(C)=O [Compound 1, reference compound]
- effect on CSPG production by astrocytes [2, 3]: did not affect CSPG production; also recorded: did not lower CSPG production in astrocytes
- Reduce CSPG production [2]: n.s.

Structure (SMILES): CC(=O)NC1C(OC(C)=O)OC(COC(C)=O)[C@@H](F)C1OC(C)=O (stereo partly shown) [Compound 3, reference compound]
- effect on CSPG production by astrocytes [2, 3]: most effectively reduced CSPG production
- Reduce CSPG production [2]: *** (***p < 0.001)
- toxicity on astrocytes (propidium iodide/calcein AM) [1]: did not produce toxicity

Structure (SMILES): CCC(=O)OC1OC(COC(C)=O)[C@@H](F)[C@H](OC(C)=O)C1NC(C)=O (stereo partly drawn) [Compound 7, 2-Acetamido-3,6-di-O-acetyl-2,4-dideoxy-4-fluoro-1-O-propanoyl-α/β-D-glucopyranose]
- effect on CSPG production by astrocytes [2, 3]: most effectively reduced CSPG production
- toxicity on astrocytes (propidium iodide/calcein AM) [1]: did not produce toxicity

Structure (SMILES): CCCC(=O)OC[C@H]1OC(O)[C@H](NC(C)=O)[C@@H](OC(=O)CCC)[C@@H]1F (stereo partly drawn) [Compound 12, 2-Acetamido-3,6-di-O-butanoyl-2,4-dideoxy-4-fluoro-α/β-3-D-glucopyranose]
- effect on CSPG production by astrocytes [2, 3]: did not affect CSPG synthesis; also recorded: did not lower CSPG production in astrocytes
- Reduce CSPG production [2]: n.s.
